Each structure is given as a SMILES string.

Here are results for 8 molecules from US7112676B2, “Pyrimido compounds having antiproliferative activity” (Hoffmann-La Roche Inc., priority 2002, dated 2006).

For one data set, the target named is T1, KDR (Homo sapiens, UniProt P35968).
T1 construct: EEE-tag
Briefly: KDR kinase HTRF assay. It counts as biochemical. Conditions: 0.3 mM ATP, read-out: IC50 (μM) - Enzyme Inhibition Assays KDR. The method, then: (§1) To determine inhibition of KDR, FGFR, EGFR, and PDGFR activity, kinase assays were conducted using an HTRF (Homogeneous Time Resolved Fluorescence) assay. This assay is described in A. J. Kolb et. al., Drug Discovery Today, 1998, 3(7), p 333.
Prior to kinase reaction, recombinant EEE-tagged KDR was activated in the presence of activation buffer (50 mM HEPES, pH 7.4, 1 mM DTT, 10% glycerol, 150 mM NaCl, 0.1 mM EDTA, 26 mM MgCl2, and 4 mM ATP). The enzyme was incubated at 4° C. for 1 hour.
(§2) Kinase activity assays were performed in 96-well polypropylene plates (Falcon) with a total volume of 90 μL in each well. Each well contained 1 μM KDR substrate (Biotin-EEEEYFELVAKKKK), 1 nM activated KDR, and a test compound with one of 8 assay concentrations ranging from 100 μM to […] (1:5 serial dilution). The kinase activity assay was done in the presence of 100 mM HEPES, pH 7.4, 1 mM DTT, 0.1 mM Na2VO4, 25 mM MgCl2, 50 mM NaCl (from KDR stock solution), 1% DMSO (from compound), 0.3 mM ATP (at Km concentration) and 0.02% BSA. The reaction was incubated at 37° C. for 30 minutes. To stop the KDR reaction, 72 μL of reaction mixture was transferred into a STOP plate containing 18 μL of revelation buffer (20 mM EDTA, 50 mM HEPES, pH 7.4, 0.02% BSA, 10 nM Eu-labelled anti-pY antibody (final conc. 2 nM), and 100 nM streptavidin (final conc. 20 nM)). After mixing, 35 μL of solution was transferred into duplicate wells of a 384-well black plate (Costar), and read at 615/665 nm on a Wallac Victor 5 reader.
(§3) Compound IC50 values were determined from duplicate sets of data, and calculated by using Excel and fitting data to equation Y=[(a−b)/{1+(X/c)^d]+b, where a and b are enzyme activity in the presence of no test inhibitor compound and an infinite amount of inhibitor test compound, respectively, c is the IC50 and d is the hill constant of the compound response. The IC50 value is the concentration of test compound that reduces by 50% the enzyme activity under the test conditions described.
In general terms: Time-resolved FRET reads energy transfer from a long-lived donor to a nearby acceptor.

In another data set the target is T2, FGFR.
T2 construct: fused on or other part: GST tag
Briefly: FGFR kinase HTRF assay. The data set is classed as biochemical. To be noted: 10 μM ATP, read-out: IC50 (μM) - Enzyme Inhibition Assays FGFR. How it is done: as §1, §2
FGFR, EGFR, and PDGFR activity assays were carried out as described above for the KDR activity assay with the following differences. GST-tagged FGFR enzyme was activated at room temperature for 1 hour in the following activation buffer: 100 mM HEPES, pH 7.4, 50 mM NaCl, 20 mM MgCl2, and 4 mM ATP. The kinase activity assay was performed with 1 μM substrate (Biotin-EEEEYFELV), 1.5 nM activated FGFR, and test compound in the presence of 100 mM HEPES, 1 mM DTT, 0.4 mM MgCl2, 0.4 mM MnCl2, 50 mM NaCl, 1% DMSO, 10 μM ATP (Km=8.5 μM for FGFR), 0.1 mM Na2VO4, and 0.02% BSA, in a total volume of 90 μL. The rest of the assay was performed in the same manner as KDR assay.
as §3

In the next data set the target is EGFR (Homo sapiens, UniProt P00533). Briefly: EGFR kinase HTRF assay. The data set is classed as biochemical. To be noted: 0.5 μM ATP, read-out: IC50 (μM) - Enzyme Inhibition Assays EGFR. How it is done: as §1, §2
The EGFR kinase activity assay was performed with 1 μM substrate (Biotin-EEEEYFELV), 1.5 nM EGFR, test compounds, 100 mM HEPES, pH 7.4, 1 mM DTT, 5 mM MgCl2, 2 mM MnCl2, 1% DMSO, 0.5 μM ATP (Km for EGFR), 0.1 mM Na2VO4, and 0.02% BSA. The rest of the assay was performed in the same manner as the KDR assay.
as §3

The next data set concerns the target PDGFR. Description: PDGFR kinase HTRF assay. It counts as biochemical. To be noted: 2.3 μM ATP, read-out: IC50 (μM) - Enzyme Inhibition Assays PDGFR. How it is done: as §1, §2
The PDGFR kinase activity assay was performed with 1 μM substrate (Biotin-EEEEYFELV), 1.0 nM PDGFR, test compounds, 100 mM HEPES, pH 7.4, 1 mM DTT, 5 mM MgCl2, 2 mM MnCl2, 1% DMSO, 2.3 μM ATP (Km for PDGFR), 0.1 mM Na2VO4, and 0.02% BSA. The rest of the assay was performed in the same manner as the KDR assay.
as §3

In a further data set the test system is VEGF-stimulated HUVEC. Briefly: VEGF-stimulated HUVEC proliferation assay (BrdU). It counts as cell-based. Conditions: Homo sapiens, VEGF 20 ng per mL, BrdU labeling, 24 hour exposure, read-out: IC50 (μM) of VEGF and FGF-Stimulated HUVEC Proliferation Assays HUVEC/VEFG. The method, then: (§4) The antiproliferative activity of test compounds of this invention in cell-based assays was evaluated by BrdU assay using the BrdU kit (Roche Biochemicals 1-647-229). Human umbilical vein endothelial cells (HUVEC, Clonetics CC-2519) were cultured in EGM-2 (Clonetics CC-3162) medium and seeded at 10000 cells per well in a volume of 200 μL of EGM-2 (Clonetics CC-3162) media in a 96-well flat bottom plates (Costar 3595) overnight. After 24 hours of growth at 37° C. with 5% CO2, the incubation media was removed slowly by aspiration and the content of each well was washed with 300 μL pre-warmed EBM-2 (Clonetics CC-3156) containing 50 μg per mL of gentamycin and 50 ng per mL of amphotercin-B (Clonetics CC-4083). Subsequently, the remaining media was again aspirated and replaced with 160 μL per well of serum starvation media (EBM-2 supplemented with 1% heat inactivated FBS (Clonetics CC-4102), 50 μg per mL gentamycin and 50 ng per mL of amphotercin-B (Clonetics CC-4083), 10 units per mL of Wyeth-Ayerst heparin (NDC0641-0391-25), and 2 mM L-glutamine (GIBCO 25030-081). After serum starving the cells for 24 hours, 20 μL of test compound at 10× test concentration in serum starvation medium with 2.5% DMSO was added to the appropriate wells. The control wells contained 20 μL of serum starvation medium with 2.5% DMSO. Plates were returned to the incubator for 2 hours. After pre-incubating the cells with the test compounds for 2 hours, 20 μL of growth factors at 10× assay concentration diluted in serum starvation media, FGF at 50 ng per mL, or VEGF (R&D systems 293-VE) at 200 ng per mL were added. The final concentration of FGF in the assay was 5 ng per mL and the final concentration of VEGF in the assays was 20 ng per mL. The growth factor free control wells had 20 μL per well of serum starvation media with the same amount of BSA as the wells with growth factors. The plates were returned to the incubator for an additional 22 hours.
(§5) After 24 hour exposure to the test compounds, the cells were labeled with BrdU (Roche Biochemicals 1-647-229), by adding 20 μL per well of BrdU labeling reagent that has been diluted (1:100) in serum starvation medium. The plates were then returned to the incubator for 4 hours. The labeling medium was removed by draining the medium onto paper towels. The cells were fixed and DNA denatured by adding 200 μL of fixation/denaturation solution to each well and incubating at room temperature for 45 minutes. The fixation/denaturation solution was drained onto paper towels and to each well was added 100 μL of anti-BrdU-POD and the wells were incubated for 2 hours at room temperature. The antibody solution was removed and the wells were each washed 3–4 times with 300 μl PBS. 100 μL of the TMB substrate solution was added to each well and the wells were incubated at room temperature for 5–8 minutes. The reaction was then stopped by adding 100 μL per well of 1 M phosphoric acid. The plates were read at 450 nm with reference wavelength of 650 nm. The percent inhibition for each test compound was calculated by subtracting the absorbency of the blank (no cells) wells from all wells, then subtracting the division of the average absorbency of each test duplicate by the average of the controls from 1. The final product was then multiplied by 100 (% of inhibition=(1−average absorbency of test duplicate/average of control)100). The IC50 value is the concentration of test compound that inhibits by 50% BrdU labeling, and is a measure of inhibition of cell proliferation. The IC50 is determined from the linear regression of a plot of the logarithm of the concentration versus percent inhibition.
(In general: Incorporation of labelled thymidine or its analogues reports DNA synthesis.)

Another data set deals with FGF-stimulated HUVEC. Description: FGF-stimulated HUVEC proliferation assay (BrdU). The data set is classed as cell-based. To be noted: Homo sapiens, FGF 5 ng per mL, BrdU labeling, 24 hour exposure, read-out: IC50 (μM) of VEGF and FGF-Stimulated HUVEC Proliferation Assays HUVEC/bFGFR. How it is done:
as §4, §5

EGFR, sequence (P00533 25-1210, species assumed): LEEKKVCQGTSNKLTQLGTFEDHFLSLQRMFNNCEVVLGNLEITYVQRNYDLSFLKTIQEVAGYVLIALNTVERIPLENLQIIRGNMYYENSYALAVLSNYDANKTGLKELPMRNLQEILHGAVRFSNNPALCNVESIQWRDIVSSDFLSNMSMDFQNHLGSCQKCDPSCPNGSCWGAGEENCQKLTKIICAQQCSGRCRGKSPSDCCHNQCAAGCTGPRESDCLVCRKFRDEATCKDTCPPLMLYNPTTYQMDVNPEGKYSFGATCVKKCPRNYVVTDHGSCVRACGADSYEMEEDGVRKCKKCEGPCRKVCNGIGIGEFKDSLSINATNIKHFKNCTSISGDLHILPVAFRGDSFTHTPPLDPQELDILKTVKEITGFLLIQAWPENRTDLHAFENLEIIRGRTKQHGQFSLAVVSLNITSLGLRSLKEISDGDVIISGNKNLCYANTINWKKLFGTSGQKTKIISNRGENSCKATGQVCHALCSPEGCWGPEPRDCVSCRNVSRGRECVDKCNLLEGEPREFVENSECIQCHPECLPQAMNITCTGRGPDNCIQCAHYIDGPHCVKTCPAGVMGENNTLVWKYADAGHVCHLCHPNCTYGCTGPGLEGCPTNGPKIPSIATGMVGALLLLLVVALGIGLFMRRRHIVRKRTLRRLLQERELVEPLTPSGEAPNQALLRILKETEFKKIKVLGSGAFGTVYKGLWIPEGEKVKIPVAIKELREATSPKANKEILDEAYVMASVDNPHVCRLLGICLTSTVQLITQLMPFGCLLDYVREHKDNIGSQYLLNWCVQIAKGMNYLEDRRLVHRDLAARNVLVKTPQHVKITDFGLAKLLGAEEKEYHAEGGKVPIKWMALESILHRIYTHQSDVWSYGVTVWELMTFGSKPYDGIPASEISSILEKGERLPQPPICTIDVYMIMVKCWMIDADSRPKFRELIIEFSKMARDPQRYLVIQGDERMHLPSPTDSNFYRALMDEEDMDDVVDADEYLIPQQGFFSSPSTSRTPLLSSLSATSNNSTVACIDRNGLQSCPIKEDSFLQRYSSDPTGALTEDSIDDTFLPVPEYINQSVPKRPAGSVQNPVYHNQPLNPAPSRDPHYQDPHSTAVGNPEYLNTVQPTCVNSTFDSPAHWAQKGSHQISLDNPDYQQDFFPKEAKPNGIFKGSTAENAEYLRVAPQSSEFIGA
T1 sequence (P35968 20-1356, species assumed): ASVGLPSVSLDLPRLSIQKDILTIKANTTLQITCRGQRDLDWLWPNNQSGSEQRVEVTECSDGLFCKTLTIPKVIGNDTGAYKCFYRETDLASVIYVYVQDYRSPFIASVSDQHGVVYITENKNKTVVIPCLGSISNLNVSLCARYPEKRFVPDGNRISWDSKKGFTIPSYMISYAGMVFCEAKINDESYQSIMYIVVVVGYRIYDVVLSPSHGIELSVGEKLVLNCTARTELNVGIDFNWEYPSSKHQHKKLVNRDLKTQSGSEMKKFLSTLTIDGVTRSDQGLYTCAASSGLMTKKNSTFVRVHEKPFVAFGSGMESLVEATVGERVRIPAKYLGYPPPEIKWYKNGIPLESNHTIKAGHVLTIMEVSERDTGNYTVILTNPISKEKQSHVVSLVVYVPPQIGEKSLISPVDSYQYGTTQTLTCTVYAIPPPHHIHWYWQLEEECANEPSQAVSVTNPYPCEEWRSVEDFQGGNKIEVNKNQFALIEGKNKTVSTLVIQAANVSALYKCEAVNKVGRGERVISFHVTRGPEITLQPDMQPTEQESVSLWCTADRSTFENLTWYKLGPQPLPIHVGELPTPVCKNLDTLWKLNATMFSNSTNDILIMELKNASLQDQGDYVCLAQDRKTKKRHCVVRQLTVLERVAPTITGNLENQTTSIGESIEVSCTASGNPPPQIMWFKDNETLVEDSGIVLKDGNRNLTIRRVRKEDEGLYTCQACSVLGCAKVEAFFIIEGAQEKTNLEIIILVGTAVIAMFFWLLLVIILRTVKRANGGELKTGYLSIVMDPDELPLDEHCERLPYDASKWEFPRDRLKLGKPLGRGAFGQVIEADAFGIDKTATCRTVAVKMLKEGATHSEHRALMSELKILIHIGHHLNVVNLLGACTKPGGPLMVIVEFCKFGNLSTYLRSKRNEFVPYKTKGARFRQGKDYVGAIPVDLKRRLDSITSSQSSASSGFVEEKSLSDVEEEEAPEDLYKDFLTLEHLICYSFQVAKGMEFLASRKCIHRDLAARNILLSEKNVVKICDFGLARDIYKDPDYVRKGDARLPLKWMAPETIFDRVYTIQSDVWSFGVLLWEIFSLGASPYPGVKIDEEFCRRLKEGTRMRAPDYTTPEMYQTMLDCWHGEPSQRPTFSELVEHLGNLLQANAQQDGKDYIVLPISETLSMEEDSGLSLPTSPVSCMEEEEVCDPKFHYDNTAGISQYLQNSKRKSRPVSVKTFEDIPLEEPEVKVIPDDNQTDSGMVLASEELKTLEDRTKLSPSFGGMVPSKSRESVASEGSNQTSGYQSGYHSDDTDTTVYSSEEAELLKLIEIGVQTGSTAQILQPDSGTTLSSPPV

The melting point is the temperature of the solid-liquid transition. On to `CCC1c2cnc(Nc3ccccc3)nc2N(c2ccccc2)C(=O)N1c1ccc(OC)cc1` (racemic) [Example 7e, (±)-4-Ethyl-3-(4-methoxy-phenyl)-1-phenyl-7-phenylamino-3,4-dihydro-1H-pyrimido[4,5d]pyrimidin-2-one], for which the melting point is 172 to 176 °C. Moreover, the IC50 at KDR is less than 10 µM. For the same molecule, the IC50 at FGFR is less than 10 µM. The IC50 at EGFR was less than 10 µM. Further, the IC50 on PDGFR is less than 10 µM.
`COc1ccc(N2C(=O)N(c3ccccc3)c3nc(Nc4ccccc4)ncc3C2C(C)C)cc1` (racemic) [Example 11e, (±)-4-Isopropyl-3-(4-methoxy-phenyl)-1-phenyl-7-phenylamino-3,4-dihydro-1H-pyrimido[4,5-d]pyrimidin-2-one] gave a melting point of 229 to 235 °C. The IC50 at KDR is more than 10 µM. Also, the IC50 at FGFR was more than 10 µM. On EGFR, the IC50 is less than 10 µM. Further, the IC50 at PDGFR is more than 10 µM.
On to `COc1ccc(Cl)c(N2C(=O)N(c3ccccc3)c3nc(Nc4ccccc4)ncc3C2C)c1` (racemic) [Example 12c, (±)-3-(2-Chloro-5-methoxy-phenyl)-4-methyl-1-phenyl-7-phenylamino-3,4-dihydro-1H-pyrimido[4,5-d]pyrimidin-2-one], for which the IC50 on KDR, on FGFR, at EGFR and at PDGFR was less than 10 µM throughout.
For the molecule `COc1ccc(N2C(=O)N(c3ccccc3)c3nc(N(C(C)=O)c4ccccc4)ncc3C2C)cc1` (racemic) [Example 19, (±)-N-[6-(4-Methoxy-phenyl)-5-methyl-7-oxo-8-phenyl-5,6,7,8-tetrahydro-pyrimido[4,5-d]pyrimidin-2-yl]-N-phenyl-acetamide], the IC50 on KDR, at FGFR, at EGFR, at PDGFR, in the data set on VEGF-stimulated HUVEC and in the data set on FGF-stimulated HUVEC was less than 10 µM throughout.
In the case of `COc1ccc(N2C(=O)N([C@H]3CC[C@H](O)CC3)c3nc(Nc4ccccc4)ncc3C2C)cc1` (mixture of isomers) [Example 20b, (±)-1-(trans-4-Hydroxy-cyclohexyl)-3-(4-methoxy-phenyl)-4-methyl-7-phenylamino-3,4-dihydro-1H-pyrimido[4,5-d]pyrimidin-2-one], the IC50 at KDR, at FGFR, on EGFR, on PDGFR, in the data set with VEGF-stimulated HUVEC and with FGF-stimulated HUVEC was less than 10 µM in each case.
`COc1ccc(N2C(=O)N(c3ccccc3)c3nc(Nc4ccccc4)ncc3[C@H]2C)cc1` (single isomer, unassigned) [Example 2] gave a melting point of 218 to 233 °C. The IC50 on KDR is less than 10 µM. In addition, the IC50 on FGFR was less than 10 µM. In addition, the IC50 on EGFR is less than 10 µM. On PDGFR, the IC50 was less than 10 µM.
In turn, `COc1ccc(N2C(=O)N([C@@H](C)CO)c3nc(Nc4ccccc4)ncc3C2C)cc1` (stereo partly drawn) [Example 13d, 1-(2-Hydroxy-1-(S)-methyl-ethyl)-3-(4-methoxy-phenyl)-4-methyl-7-phenylamino-3,4-dihydro-1H-pyrimido[4,5-d]pyrimidin-2-one] registered a melting point of 165 to 180 °C.
In turn, `COc1ccc(N2C(=O)N([C@H](C)CO)c3nc(Nc4ccccc4)ncc3[C@H]2C)cc1` [Example 14f, 1-(2-Hydroxy-1-(R)-methyl-ethyl)-3-(4-methoxy-phenyl)-4-(R)-methyl-7-phenylamino-3,4-dihydro-1H-pyrimido[4,5-d]pyrimidin-2-one] showed a melting point of 158 to 162 °C. Moreover, at KDR, the IC50 is less than 10 µM. On FGFR, the IC50 was less than 10 µM. At EGFR, the IC50 is less than 10 µM. Also, on PDGFR, the IC50 was less than 10 µM.
